According to PMC4573853 (Genes & Development, 2015):
No end group written: not given here.

How the values were obtained:
[1] = target: T1, Taf14 YEATS (residues 1–132) (Saccharomyces cerevisiae, UniProt P35189); experiment: NMR chemical shift perturbation; type: binding, S. cerevisiae; details: for amide resonance changes / interaction: 15N-labeled Taf14 YEATS (1–132), peptide titration
T1 sequence (P35189 1-132): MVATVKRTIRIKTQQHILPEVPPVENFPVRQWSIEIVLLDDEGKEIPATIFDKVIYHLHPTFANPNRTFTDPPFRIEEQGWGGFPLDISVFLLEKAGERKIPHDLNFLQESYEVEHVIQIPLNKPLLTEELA

[2] = system: taf14Δ cells; details: ref Zhang et al. 2004; cited from earlier work
[3] = system: taf14Δ cells; experiment: Spotting assay, sensitivity to DNA-damaging agents; type: cell-based, S. cerevisiae; details: Supplemental Fig. S3D
[4] = system: taf14Δ strain (BY4741 background); experiment: Spotting assay on 6-azauracil medium; type: cell-based, S. cerevisiae; details: Fig. 4F
[5] = system: Yaf9 YEATS domain; details: capacity to bind in vitro; ref Li et al. 2014; cited from earlier work
[6] = 1H,15N HSQC, Supplemental Fig. S2A

## CC(=O)NCCCC[C@H](N)C(=O)O [acetylated lysine]
[1]; 1H,15N HSQC
  amide resonance changes / interaction: CSPs primarily in an acetyllysine-binding pocket

## COS(C)(=O)=O [MMS, methane methylsulfonate]
[2]
  sensitivity of taf14Δ cells: sensitive
[3]; taf14Δ expressing taf14W81A
  effect of Taf14 YEATS disruption on response to agent: significantly impaired the response

## H3K9ac5–13: H3K9ac5–13 peptide (Ac-QTARK(Ac)STGG)
[1]; [6]
  binding relative to H3K9ac1–12: slightly decreased
  resonance perturbation pattern relative to H3K9ac1–12: nearly identical resonance perturbation pattern

## O=c1cn[nH]c(=O)[nH]1 [6-AU, 6-azauracil]
[4]; taf14Δ expressing taf14W81A
  rescue of 6-AU growth by taf14W81A: unable to rescue
[4]; taf14Δ expressing wild-type TAF14
  rescue of 6-AU sickness by exogenous TAF14: could rescue

## NC(=O)NO [HU, hydroxyurea]
[2]
  sensitivity of taf14Δ cells: sensitive
[3]
  sensitivity of taf14Δ strain: sensitivity

## phleomycin
[3]
  sensitivity of taf14Δ strain: sensitivity

## H3K27ac21–31: H3K27ac21–31 peptide (ATKAARK(Ac)SAPA)
[1]; 1H,15N HSQC, Supplemental Fig. S2B
  CSP magnitude relative to H3K9ac: smaller in magnitude
[1]; inferred from CSP magnitude, Supplemental Fig. S2B
  binding relative to H3K9ac: weaker

## H3K27ac: H3 peptide acetylated at Lys27 (ATKAARK(Ac)SAPA)
[5]
  preference of Yaf9 YEATS domain: capacity to bind

## H3K9ac1–12: H3K9ac1–12 peptide
[1]; 1H,15N HSQC
  amide resonance changes / interaction: strong interaction
